Several values for one entry are separate records, joined by “and”; a condition that tells them apart may be missing. Equal values may be shown once.
Conditions: Liquid, Falling or rolling sphere viscometry

[2H]O[2H] [water-d2]
Conditions | viscosity
255.65 K, 212200 kPa | 3.963 mPa·s
255.65 K, 220100 kPa | 3.973 mPa·s
255.65 K, 239200 kPa | 4.012 mPa·s
255.65 K, 249500 kPa | 4.036 mPa·s
258.15 K, 196900 kPa | 3.566 mPa·s
258.15 K, 215300 kPa | 3.588 mPa·s
258.15 K, 242900 kPa | 3.629 mPa·s
258.15 K, 271000 kPa | 3.697 mPa·s
258.15 K, 298500 kPa | 3.777 mPa·s
258.15 K, 315600 kPa | 3.835 mPa·s
263.15 K, 153200 kPa | 2.939 mPa·s
263.15 K, 160800 kPa | 2.937 mPa·s
263.15 K, 185300 kPa | 2.944 mPa·s
263.15 K, 200800 kPa | 2.953 mPa·s
263.15 K, 249500 kPa | 3.02 mPa·s
263.15 K, 299600 kPa | 3.125 mPa·s
263.15 K, 347100 kPa | 3.26 mPa·s
263.15 K, 383400 kPa | 3.381 mPa·s
268.15 K, 109700 kPa | 2.494 mPa·s
268.15 K, 125300 kPa | 2.475 mPa·s
268.15 K, 150900 kPa | 2.468 mPa·s
268.15 K, 174700 kPa | 2.464 mPa·s
268.15 K, 201200 kPa | 2.481 mPa·s
268.15 K, 251400 kPa | 2.535 mPa·s
268.15 K, 289200 kPa | 2.601 mPa·s
268.15 K, 325500 kPa | 2.675 mPa·s
268.15 K, 390600 kPa | 2.85 mPa·s
273.15 K, 52000 kPa | 2.196 mPa·s
273.15 K, 69600 kPa | 2.159 mPa·s
273.15 K, 99700 kPa | 2.116 mPa·s
273.15 K, 130400 kPa | 2.098 mPa·s
273.15 K, 150600 kPa | 2.096 mPa·s
273.15 K, 177300 kPa | 2.103 mPa·s
273.15 K, 204300 kPa | 2.119 mPa·s
273.15 K, 223000 kPa | 2.135 mPa·s
273.15 K, 252900 kPa | 2.165 mPa·s
273.15 K, 279500 kPa | 2.203 mPa·s
273.15 K, 302900 kPa | 2.234 mPa·s
273.15 K, 350500 kPa | 2.318 mPa·s
273.15 K, 357500 kPa | 2.336 mPa·s
273.15 K, 395200 kPa | 2.435 mPa·s
278.15 K, 100 kPa | 1.987 mPa·s
278.15 K, 3100 kPa | 1.977 mPa·s
278.15 K, 5600 kPa | 1.968 mPa·s
278.15 K, 8100 kPa | 1.961 mPa·s
278.15 K, 10800 kPa | 1.952 mPa·s
278.15 K, 25900 kPa | 1.911 mPa·s
278.15 K, 50800 kPa | 1.862 mPa·s
278.15 K, 75600 kPa | 1.829 mPa·s
278.15 K, 100700 kPa | 1.811 mPa·s
278.15 K, 125600 kPa | 1.803 mPa·s
278.15 K, 150500 kPa | 1.802 mPa·s
278.15 K, 174500 kPa | 1.809 mPa·s
278.15 K, 199100 kPa | 1.822 mPa·s
278.15 K, 224100 kPa | 1.841 mPa·s
278.15 K, 249600 kPa | 1.865 mPa·s
278.15 K, 299700 kPa | 1.922 mPa·s
278.15 K, 349100 kPa | 1.993 mPa·s
283.15 K, 100 kPa | 1.677 mPa·s
283.15 K, 200 kPa | 1.676 mPa·s and 1.677 mPa·s
283.15 K, 3000 kPa | 1.67 mPa·s
283.15 K, 5600 kPa | 1.665 mPa·s
283.15 K, 8100 kPa | 1.66 mPa·s
283.15 K, 10800 kPa | 1.655 mPa·s
283.15 K, 25800 kPa | 1.629 mPa·s
283.15 K, 50800 kPa | 1.597 mPa·s and 1.598 mPa·s
283.15 K, 100800 kPa | 1.569 mPa·s and 1.567 mPa·s
283.15 K, 125500 kPa | 1.566 mPa·s
283.15 K, 150600 kPa | 1.57 mPa·s
283.15 K, 150800 kPa | 1.569 mPa·s
283.15 K, 175500 kPa | 1.579 mPa·s
283.15 K, 199400 kPa | 1.592 mPa·s
283.15 K, 199700 kPa | 1.592 mPa·s
283.15 K, 224300 kPa | 1.608 mPa·s
283.15 K, 249600 kPa | 1.629 mPa·s
283.15 K, 249700 kPa | 1.63 mPa·s
283.15 K, 299200 kPa | 1.678 mPa·s
283.15 K, 299600 kPa | 1.678 mPa·s
283.15 K, 348600 kPa | 1.737 mPa·s
283.15 K, 348700 kPa | 1.737 mPa·s
298.15 K, 100 kPa | 1.097 mPa·s [middle of 6 runs]
298.15 K, 200 kPa | 1.095 mPa·s
298.15 K, 5600 kPa | 1.092 mPa·s
298.15 K, 8000 kPa | 1.09 mPa·s
298.15 K, 10300 kPa | 1.091 mPa·s
298.15 K, 10700 kPa | 1.09 mPa·s
298.15 K, 25700 kPa | 1.084 mPa·s
298.15 K, 30700 kPa | 1.084 mPa·s
298.15 K, 50700 kPa | 1.079 mPa·s and 1.081 mPa·s
298.15 K, 60700 kPa | 1.079 mPa·s
298.15 K, 75600 kPa | 1.08 mPa·s
298.15 K, 90600 kPa | 1.081 mPa·s
298.15 K, 90700 kPa | 1.081 mPa·s
298.15 K, 100600 kPa | 1.081 mPa·s
298.15 K, 120700 kPa | 1.086 mPa·s
298.15 K, 125600 kPa | 1.087 mPa·s
298.15 K, 130600 kPa | 1.089 mPa·s
298.15 K, 150600 kPa | 1.094 mPa·s and 1.095 mPa·s
298.15 K, 170500 kPa | 1.104 mPa·s
298.15 K, 175600 kPa | 1.105 mPa·s
298.15 K, 180600 kPa | 1.108 mPa·s
298.15 K, 200600 kPa | 1.117 mPa·s
298.15 K, 210200 kPa | 1.122 mPa·s
298.15 K, 210600 kPa | 1.123 mPa·s
298.15 K, 225500 kPa | 1.131 mPa·s
298.15 K, 240600 kPa | 1.141 mPa·s
298.15 K, 249700 kPa | 1.146 mPa·s
298.15 K, 270500 kPa | 1.16 mPa·s
298.15 K, 299600 kPa | 1.181 mPa·s
298.15 K, 300300 kPa | 1.182 mPa·s
298.15 K, 330100 kPa | 1.205 mPa·s
298.15 K, 331900 kPa | 1.205 mPa·s
298.15 K, 349000 kPa | 1.221 mPa·s
298.15 K, 359800 kPa | 1.23 mPa·s
298.15 K, 389400 kPa | 1.257 mPa·s

— the NIST ThermoML archive (doi:10.1021/je049918m)
